The values below come from EP4678638A1, “NEW E3 UBIQUITIN LIGASE LIGAND, PROTEIN DEGRADATION AGENT AND USE THEREOF” (priority 2023, dated 2024).

In one assay the test system is SR. The assay is described as follows: CCK-8 proliferation, SR. The assay is classed as cell-based, Human. Conditions: Homo sapiens; Table B6, compounds designed based on the ALK inhibitors; SR cells; read-out: Inhibitory activity (IC50, nM) on tumor cell proliferation, SR. Summed up:
(§1)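 Tumor cells were cultured at 37°C with 5% CO2, seeded, and after 24h treated with compounds at 10 concentrations starting at 10µM (5-fold serial dilutions).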

The next assay deals with H1975. The assay is described as follows: CCK-8 proliferation, NCI-H1975 (H1975). It is filed as cell-based, Human. Conditions: Homo sapiens, NCI-H1975; Table B6, compounds designed based on the ALK inhibitors; H1975 cells; read-out: Inhibitory activity (IC50, nM) on tumor cell proliferation, H1975. The method, boiled down: as §1
The test system of another assay is H2228. The assay is described as follows: CCK-8 proliferation, NCI-H2228 (H2228). Conditions: Homo sapiens, NCI-H2228; Table B6, compounds designed based on the ALK inhibitors; H2228 cells; read-out: Inhibitory activity (IC50, nM) on tumor cell proliferation, H2228. It is filed as cell-based. Summed up:
as §1

For the next assay, the target named is T1, ALK (Homo sapiens, UniProt Q96SW2+Q9HC35+Q9UM73).
T1 construct: evaluate the effects of the compounds of the present disclosure on the expression of target proteins in cells; endogenous in cells; host or cells: H2228
The assay is described as follows: Western blot degradation of ALK (H2228 Cell). The assay is classed as cell-based. The conditions noted are these: Table D5. The method, boiled down:
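After compound exposure, cells were harvested and lysates run on SDS-PAGE, transferred to nitrocellulose and probed with antibodies. Remaining target (%) was computed from band grayscale relative to an internal control protein and normalised; degradation (%) was 100% minus that.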
(In western blotting, separated proteins are transferred to a membrane and probed.)

Another assay relates to MDA-MB-231. The assay is described as follows: CCK-8 proliferation, MDA-MB-231. The assay is classed as cell-based. Conditions: Homo sapiens; Table B6, compounds designed based on the ALK inhibitors; MDA-MB-231 cells; read-out: Inhibitory activity (IC50, nM) on tumor cell proliferation, MDA-MB-231. The protocol:
The tumor cells used herein were cultured in a cell culture medium listed in table A1 at 37°C in an incubator with 5% CO2. Prior to experimentation, all cell lines used were correctly identified by STR profiling, and tested negative for mycoplasma contamination using a mycoplasma detection kit through routine screenings. Table A1. Tumor cells and cell culture medium used in the present disclosure
IC50 values of the compounds of the present disclosure (including the compounds in Table 1, and compounds of examples) were measured using the Meilun Cell Counting Kit-8 kit from Dalian Meilun Biotech Co., Ltd. Assay details are as follows: tumor cells were seeded in a 96-well plate at a density listed in Table A2. After 24h, 100 µL of the inoculated cells were treated with 0.5µL of the compounds of the present disclosure (including the compounds in Tables 1 and 2, and compounds of examples) at 10 different successively decreasing concentrations (starting at the highest concentration of 10µM; 5-fold serial dilutions). After the cells were treated with the compounds of the present disclosure for a period of time, the cell viability detection reagent was added to the culture medium for cell viability assessment according to the instructions provided with the CCK-8 kit. […] The growth inhibition of the compounds of the present disclosure on cells was plotted by Prism Graphpad software, and the IC50 values of the compounds of the present disclosure were calculated therefrom. […] Seeding protocol and treatment time for tumor cells

The next assay relates to MCF7. The assay is described as follows: CCK-8 proliferation, MCF7 (MCF-7). It is filed as cell-based. Conditions: Homo sapiens, MCF7; Table B6, compounds designed based on the ALK inhibitors; MCF-7 cells; read-out: Inhibitory activity (IC50, nM) on tumor cell proliferation, MCF-7. The method, boiled down:
as §1

T1 sequence (Q9HC35+Q9UM73 fused): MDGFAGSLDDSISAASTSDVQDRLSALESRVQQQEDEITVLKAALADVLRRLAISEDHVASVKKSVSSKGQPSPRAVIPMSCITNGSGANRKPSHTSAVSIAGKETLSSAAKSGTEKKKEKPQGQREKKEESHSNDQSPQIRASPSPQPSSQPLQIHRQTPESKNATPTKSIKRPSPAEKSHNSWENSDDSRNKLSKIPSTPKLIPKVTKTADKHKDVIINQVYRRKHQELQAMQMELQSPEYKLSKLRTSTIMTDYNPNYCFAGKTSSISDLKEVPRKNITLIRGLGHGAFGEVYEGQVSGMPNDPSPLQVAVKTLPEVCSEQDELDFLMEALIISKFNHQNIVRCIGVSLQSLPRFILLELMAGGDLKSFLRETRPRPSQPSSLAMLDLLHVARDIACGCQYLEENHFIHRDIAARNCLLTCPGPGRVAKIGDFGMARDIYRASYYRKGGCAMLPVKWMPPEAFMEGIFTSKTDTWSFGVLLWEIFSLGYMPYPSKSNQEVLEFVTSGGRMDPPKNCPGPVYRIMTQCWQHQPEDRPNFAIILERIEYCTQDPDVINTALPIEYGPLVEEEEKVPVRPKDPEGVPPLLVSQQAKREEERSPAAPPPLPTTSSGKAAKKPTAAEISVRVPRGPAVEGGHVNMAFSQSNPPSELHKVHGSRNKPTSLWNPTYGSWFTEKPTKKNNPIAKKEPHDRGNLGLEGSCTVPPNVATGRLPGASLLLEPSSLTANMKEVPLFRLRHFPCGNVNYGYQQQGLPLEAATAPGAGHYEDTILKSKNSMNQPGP
T1 sequence (Q96SW2 whole entry): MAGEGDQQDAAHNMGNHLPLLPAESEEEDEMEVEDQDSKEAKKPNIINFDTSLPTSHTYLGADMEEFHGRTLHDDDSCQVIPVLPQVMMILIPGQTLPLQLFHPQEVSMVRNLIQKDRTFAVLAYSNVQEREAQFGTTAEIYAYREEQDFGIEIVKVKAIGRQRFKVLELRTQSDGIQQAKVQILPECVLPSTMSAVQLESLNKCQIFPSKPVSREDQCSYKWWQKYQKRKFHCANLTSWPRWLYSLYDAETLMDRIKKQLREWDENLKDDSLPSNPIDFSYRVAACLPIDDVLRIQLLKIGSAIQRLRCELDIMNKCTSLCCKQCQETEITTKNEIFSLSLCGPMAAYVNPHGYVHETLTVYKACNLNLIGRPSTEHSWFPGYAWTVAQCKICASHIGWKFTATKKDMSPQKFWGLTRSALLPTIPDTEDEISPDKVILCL
T1 sequence (Q16531 whole entry partner): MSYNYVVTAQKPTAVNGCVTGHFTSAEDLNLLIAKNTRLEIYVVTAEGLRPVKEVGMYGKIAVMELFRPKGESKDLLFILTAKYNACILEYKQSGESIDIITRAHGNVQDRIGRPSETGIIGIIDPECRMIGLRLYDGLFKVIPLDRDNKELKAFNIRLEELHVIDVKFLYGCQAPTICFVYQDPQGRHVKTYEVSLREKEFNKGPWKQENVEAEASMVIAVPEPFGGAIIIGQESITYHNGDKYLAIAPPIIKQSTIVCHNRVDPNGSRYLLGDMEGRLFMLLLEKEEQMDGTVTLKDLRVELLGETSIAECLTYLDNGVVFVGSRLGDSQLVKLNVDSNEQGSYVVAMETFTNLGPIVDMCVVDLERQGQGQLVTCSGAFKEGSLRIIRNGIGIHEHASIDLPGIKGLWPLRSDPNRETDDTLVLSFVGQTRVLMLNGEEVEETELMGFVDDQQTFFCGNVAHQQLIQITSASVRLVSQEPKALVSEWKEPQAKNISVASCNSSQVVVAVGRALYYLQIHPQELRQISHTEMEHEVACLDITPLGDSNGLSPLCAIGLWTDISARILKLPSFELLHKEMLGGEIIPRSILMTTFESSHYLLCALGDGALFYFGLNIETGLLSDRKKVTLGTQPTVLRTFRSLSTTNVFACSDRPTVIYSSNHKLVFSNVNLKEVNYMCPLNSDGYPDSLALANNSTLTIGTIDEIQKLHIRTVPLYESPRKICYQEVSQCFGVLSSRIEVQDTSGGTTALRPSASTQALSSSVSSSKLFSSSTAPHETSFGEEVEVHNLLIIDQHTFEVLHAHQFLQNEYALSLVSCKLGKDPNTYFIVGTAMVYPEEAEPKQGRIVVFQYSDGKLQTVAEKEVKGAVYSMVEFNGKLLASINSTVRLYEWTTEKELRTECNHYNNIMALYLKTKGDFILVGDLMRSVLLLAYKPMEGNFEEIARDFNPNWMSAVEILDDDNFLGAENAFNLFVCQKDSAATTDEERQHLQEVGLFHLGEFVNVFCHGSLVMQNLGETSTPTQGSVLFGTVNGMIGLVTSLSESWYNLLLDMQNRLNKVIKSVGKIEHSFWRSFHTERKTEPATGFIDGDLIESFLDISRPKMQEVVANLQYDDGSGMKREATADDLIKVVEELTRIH

As for `COc1cc(N2CCC(N3CCN(Cc4cccc(NC5CCC(=O)NC5=O)c4)CC3)CC2)ccc1Nc1ncc(Cl)c(Nc2ccccc2P(C)(C)=O)n1` (stereo not drawn) [GT-07605, 3-((3-((4-(1-(4-((5-chloro-4-((2-(dimethylphosphoryl)phenyl)amino)pyrimidin-2-yl)amino)-3-methoxyphenyl)piperidin-4-yl)piperazin-1-yl)methyl)phenyl)amino)pip eridine-2,6-dione], the IC50 is 1 to 10 nM in the assay with SR; 100 to 500 nM in the assay on H1975; 50 to 100 nM with H2228; 100 to 500 nM in the assay with MDA-MB-231; 100 to 500 nM in the assay with MCF7. Also, the “Degradation of substrate protein ALK (substrate protein remaining %)” value (from here on “Degradation … (substrate protein remaining %)”) on ALK is “A (A is defined as 0% ≤ substrate protein remaining % ≤ 80%)”.
In the case of `COc1cc(N2CCC(N3CCN(Cc4ccc(C5CCC(=O)NC5=O)cn4)CC3)CC2)ccc1Nc1ncc(Cl)c(Nc2ccccc2P(C)(C)=O)n1` (stereo not drawn) [GT-07613, 3-(6-((4-(1-(4-((5-chloro-4-((2-(dimethylphosphoryl)phenyl)amino)pyrimidin-2-yl)amino)-3-methoxyphenyl)piperidin-4-yl)piperazin-1-yl)methyl)pyridin-3-yl)piperidine-2,6-dione], the IC50 was in the range of 1 to 10 nM in the assay on SR; 500 to 1000 nM with H1975; 50 to 100 nM in the assay with H2228; 500 to 1000 nM in the assay with MDA-MB-231; 500 to 1000 nM in the assay on MCF7. In addition, on ALK, the “Degradation … (substrate protein remaining %)” value was “A (A is defined as 0% ≤ substrate protein remaining % ≤ 80%)”.
Consider `COc1cc(N2CCC(N(C)Cc3cccc(NC4CCC(=O)NC4=O)c3)CC2)ccc1Nc1ncc(Cl)c(Nc2ccccc2P(C)(C)=O)n1` (stereo not drawn) [GT-07692, 3-((3-(((1-(4-((5-chloro-4-((2-(dimethylphosphoryl)phenyl)amino)pyrimidin-2-yl)amino)-3-methoxyphenyl)piperidin-4-yl)(methyl)amino)methyl)phenyl)amino)piperidine-2,6-dione], for which the IC50 with SR is 10 to 50 nM; in the assay on H1975, 500 to 1000 nM; in the assay with H2228 it was 100 to 500 nM; with MDA-MB-231, 500 to 1000 nM; in the assay on MCF7, 100 to 500 nM. Besides, on ALK, the “Degradation … (substrate protein remaining %)” value is recorded as “A (A is defined as 0% ≤ substrate protein remaining % ≤ 80%)”.
In the case of `COc1cc(N2CCC(N(C)Cc3cncc(C4CCC(=O)NC4=O)c3)CC2)ccc1Nc1ncc(Cl)c(Nc2ccccc2P(C)(C)=O)n1` (stereo not drawn) [GT-07699, 3-(5-(((1-(4-((5-chloro-4-((2-(dimethylphosphoryl)phenyl)amino)pyrimidin-2-yl)amino)-3-methoxyphenyl)piperidin-4-yl)(methyl)amino)methyl)pyridin-3-yl)piperidine-2,6-dione], the IC50 in the assay with SR was in the range of 10 to 50 nM; with H1975, 500 to 1000 nM; in the assay on H2228 it was 100 to 500 nM; in the assay on MDA-MB-231 it was 500 to 1000 nM; in the assay on MCF7 it was 500 to 1000 nM. Besides, the “Degradation … (substrate protein remaining %)” value on ALK is reported as “A (A is defined as 0% ≤ substrate protein remaining % ≤ 80%)”.
